Measured values: patent US20260007756A1, “COMPOUND AND USE THEREOF” (COHERENT BIOPHARMA (SUZHOU) LIMITED, priority 2022, published 2026)

Tests used:
[1] = test system: human prostate cancer 22RV1 cell subcutaneous xenograft tumor; experiment: Pharmacodynamic assessment, 22RV1 xenograft model; format: in vivo; details: 4 mg/kg iv biw×3, day 31 after grouping
Source text: Objective: Pre-clinical pharmacodynamic study of compounds for treating BALB/c nude mouse model with 22RV1 cell subcutaneous xenograft tumor (overexpressing PSMA).
Procedures: 22RV1 tumor mass was grafted subcutaneously at the right back of the mice, and the mice were randomized after the mean tumor volume was 150 mm^3. After administration, the animals were monitored daily for health conditions and death, and the routine examinations included observation of the effect on tumor growth and the effect of the treatment on the daily performance of the animals, such as behavioral activities, food and water intake, weight changes (measured once every other day), appearance, or other abnormal conditions. Whether the tumor growth was inhibited or delayed or the tumor was cured was also observed. The tumor volume was measured periodically. The tumor volume was calculated using the following formula: V=1/2×(a×b^2), where a and b denote the long diameter and short diameter of the tumor, respectively.

[2] = test system: HT-29 cell subcutaneous xenograft tumor; experiment: Pharmacodynamic assessment, HT-29 xenograft model; format: in vivo, BALB/c nude mouse
Source text: Objective: Pre-clinical assessment of the efficacy of CR202 series of compounds for treating BALB/c nude mouse model with HT-29 cell subcutaneous xenograft tumor.
(§1) Procedures: HT-29 cells were subcutaneously grafted at the right back of the mice, and the mice were randomized when the mean tumor volume reached 100-150 mm^3. After the administration, the routine monitoring included the effect on tumor growth and the effect of treatment on the normal behavior of the animals, specifically the activity, food and water intake, weight gain or loss, the eyes, the hair, and other abnormal conditions. Clinical symptoms observed during the study were recorded in the raw data. After the administration was started, the body weight and tumor size of the mice were measured periodically. The tumor volume was calculated using the following formula: V=1/2×(a×b^2), where a and b denote the long diameter and short diameter of the tumor, respectively.

[3] = Solubility study in PBS; format: physicochemical; details: aqueous buffer, thermodynamic from solid; PBS (pH 7.2 to 7.4); read-out: Solubility, concentration
Protocol: The mixture was vortexed for 2 min until the solid was dissolved. The solubility was calculated as: C=m/V, C: concentration, m: sample weight, V: PBS total volume.

[4] = test system: human prostate cancer C4-2 cell subcutaneous xenograft tumor; experiment: Pharmacodynamic assessment, C4-2 xenograft model; format: in vivo, NCG mouse; details: 4 mg/kg i.v biw×3, day 23 after grouping
Source text: Objective: Pre-clinical assessment of the efficacy of compounds for treating NCG mouse model with C4-2 cell subcutaneous xenograft tumor (overexpressing PSMA).
as §1, with “C4-2” for “HT-29”

[5] = test system: PC-3; experiment: Expansion inhibition of tumor cells (Example 7, CCK-8); format: cell-based; details: Homo sapiens, PC-3 (no detectable FOLR1 or PSMA expression), 72 h
Protocol: (§2) Samples were serially diluted with medium (serially 5-fold diluted from 10 μM) to 9 concentrations. […] Negative and blank controls were set.
(§3) A CCK-8 developing solution was added at 10 μL/well (10% of the liquid volume in the wells). The plates were incubated at 37° C. for a proper time (the OD value was controlled within the range of 1.0-2.5 as possible). The plate covers were removed, and the 96-well plates were loaded on a microplate reader (Molecular Devices SpectraMax iD5) to read the measurement at 450 nm.

[6] = test system: A549; experiment: as above; format: cell-based; details: Homo sapiens, A549 (no detectable FOLR1 or PSMA expression), 72 h
Protocol: as §2, §3

[7] = test system: NCI-H460; experiment: as above; format: cell-based; details: Homo sapiens, NCI-H460 (no detectable FOLR1 or PSMA expression), 72 h
Protocol: as §2, §3

[8] = test system: HepG2; experiment: as above; format: cell-based; details: Homo sapiens, HepG2 (no detectable FOLR1 or PSMA expression), 72 h
Protocol: as §2, §3

[9] = Single-dose PK assessment, tumor concentration in HT-29 xenograft mice; format: in vivo, BALB/c nude male mouse; details: 2 mg/kg CR20274 single tail vein injection, 5 min
[10] = as above; format: in vivo, BALB/c nude male mouse; details: 2 mg/kg CR20274 single tail vein injection
Protocol: Objective: Single-dose PK assessment of compounds CR20214 and CR20274 in BALB/c nude male mouse model with human colorectal cancer HT-29 cell subcutaneous xenograft.
Procedures: HT-29 cells were grafted subcutaneously on the right back of the mice (purchased from GemPharmatech Co., Ltd., weighing 20-25 g, male, aged 45-60 days), and the mice were randomized when the mean tumor volume reached about 300 mm^3. 6.25 mg/kg of CR20214 and 2 mg/kg of CR20274 were given to the HT-29 tumor-bearing mice in a single dose by tail vein injection. The tumors were taken at […], 0.25, 0.5, 1, 2, 4, 8, 24, 48 and 72 h post-dose, ground, and homogenized. The homogenate was extracted, and after centrifugation, the supernatants were injected into a triple quadrupole tandem mass spectrometer to determine the CR20274 content in the tumors.

[11] = 2 mg/kg i.v BIW×3, day 25 after grouping
[12] = 4 mg/kg i.v BIW×3, day 25 after grouping

solubility at 2 min [3]: < 900 µg/mL | IC50 [5]: 103 nM | IC50 [6]: 124 nM | IC50 [7]: 314 nM | IC50 [8]: 107 nM | Concentration of CR20274 in tumors (C2) [9]: 0.227 nmol/g | Concentration of CR20274 in tumors (C2) ([10]; 0.25 h): 0.206 nmol/g | Concentration of CR20274 in tumors (C2) ([10]; 0.5 h): 0.222 nmol/g | Concentration of CR20274 in tumors (C2) ([10]; 1 h): 0.191 nmol/g | Concentration of CR20274 in tumors (C2) ([10]; 2 h): 0.180 nmol/g | Concentration of CR20274 in tumors (C2) ([10]; 4 h): 0.164 nmol/g | Concentration of CR20274 in tumors (C2) ([10]; 8 h): 0.154 nmol/g | Concentration of CR20274 in tumors (C2) ([10]; 24 h): 0.104 nmol/g | Concentration of CR20274 in tumors (C2) ([10]; 48 h): 0.064 nmol/g | Concentration of CR20274 in tumors (C2) ([10]; 72 h): 0.044 nmol/g
Compound: CC[C@@H]1C(=O)N(C)c2cnc(Nc3ccc(-c4cn([C@H]5CC[C@@H](NCCOCCC#Cc6cccc7c6CN(C6CCC(=O)NC6=O)C7=O)CC5)nn4)cc3OC)nc2N1C1CCCC1 (some centres unmarked) [CR20274]
Mean tumor volume [1]: 1274.47 mm^3 | TGI [1]: 31.55% | Mean tumor volume [2, 11]: 1575.84 mm^3 | TGI [2, 11]: 24.23% | Mean tumor volume [2, 12]: 1316.64 mm^3 | TGI [2, 12]: 36.69% | Mean tumor volume [4]: 2198.07 mm^3 | TGI [4]: −25.70%
